Reference: patent publication US11236087B2, “Highly active pyrazolo-piperidine substituted indole-2-carboxamides active against the hepatitis B virus (HBV)” (AiCuris GmbH & Co. KG, priority 2017, dated 2022)

How the values were obtained:
HBV = assay: Determination of HBV DNA from the supernatants of HepAD38 cells (anti-HBV activity); type: cell-based, hepatitis B virus; conditions: Hepatitis B virus, 144 h; HBV DNA in HepAD38 supernatant, day 6, qPCR; read-out: Cell Activity (EC50)
How it was run: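 HepAD38 cells, tetracycline withdrawn to induce HBV, treated with serial half-log compound dilutions; on day 6 HBV DNA purified from filtered supernatant and quantified by real-time PCR against HBV plasmid standards; EC50 from relative copy numbers by non-linear regression, three experiments in triplicate.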

HBV core protein = molecular target: T1, HBV core protein (UniProt P03146); assay: Biochemical capsid assembly assay (fluorescence quenching); set-up: species or system hepatitis B virus; conditions: read-out: Assembly Activity (IC50); BODIPY-FL labelled core protein, 300 μM NaCl, read 6 min after start
T1 construct: fused on or other part: BODIPY-FL maleimide label on the C-terminal Cys150
How it was run: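 Purified E. coli-expressed HBV core protein (aa 1-149 plus Cys150), BODIPY-FL maleimide-labelled, at 1.0-2.0 μM in 50 mM HEPES pH 7.5 with 0.5% DMSO was used. Compounds were tested at 8 concentrations (0.5-log dilutions from 100, 31.6 or 10 μM). Assembly was started with NaCl ([…]), and fluorescence quenching was read after 6 min (ex 477/em 525 nm). EC50 was determined by non-linear regression.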

[1] = Cell viability assay (AlamarBlue) in HepAD38 cells; conditions: human

T1 sequence (P03146 whole entry, looked up, the tested form may be a part): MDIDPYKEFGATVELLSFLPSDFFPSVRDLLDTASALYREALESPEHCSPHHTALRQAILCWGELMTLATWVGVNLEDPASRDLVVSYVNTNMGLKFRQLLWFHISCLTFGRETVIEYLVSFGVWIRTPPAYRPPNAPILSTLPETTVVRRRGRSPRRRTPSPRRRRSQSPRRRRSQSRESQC

Row | SMILES | EC50 (HBV) [µM] | IC50 (HBV core protein) [µM] | CC50 at 6 days [1] [µM]
1 | O=C(c1cc2ccccc2[nH]1)N1CCc2n[nH]c(C(=O)N3CCCCC34CC4)c2C1 [Example 279, 2-(3-{4-azaspiro[2.5]octane-4-carbonyl}-2H,4H,5H,6H,7H-pyrazolo[4,3-c]pyridine-5-carbonyl)-1H-indole] | < 1 | < 5 | > 10
2 | CN(CCN)C(=O)c1[nH]nc2c1CN(C(=O)c1cc3ccccc3[nH]1)CC2 [Example 280, N-(2-aminoethyl)-5-(1H-indole-2-carbonyl)-N-methyl-2H,4H,5H,6H,7H-pyrazolo[4,3-c]pyridine-3-carboxamide] | < 1 | < 100 | > 10
3 | CNC(=O)c1n[nH]c2c1CN(C(=O)c1cc3ccccc3[nH]1)CC2 [Example 285, 5-(1H-indole-2-carbonyl)-N-methyl-1H,4H,5H,6H,7H-pyrazolo[4,3-c]pyridine-3-carboxamide] | 1 to 25 | < 100 | > 10
4 | CN(C(=O)c1n[nH]c2c1CN(C(=O)c1cc3c(Cl)cccc3[nH]1)CC2)C1(CO)CC1 [Example 290, 5-(4-chloro-1H-indole-2-carbonyl)-N-[1-(hydroxymethyl)cyclopropyl]-N-methyl-1H,4H,5H,6H,7H-pyrazolo[4,3-c]pyridine-3-carboxamide] | < 1 | < 5 | > 10
5 | CCc1cccc2[nH]c(C(=O)N3CCc4[nH]nc(C(=O)N(C)C5(CO)CC5)c4C3)cc12 [Example 291, 5-(4-ethyl-1H-indole-2-carbonyl)-N-[1-(hydroxymethyl)cyclopropyl]-N-methyl-1H,4H,5H,6H,7H-pyrazolo[4,3-c]pyridine-3-carboxamide] | < 1 | < 5 | > 10
6 | CN(CCC#N)C(=O)c1n[nH]c2c1CN(C(=O)c1cc3ccccc3[nH]1)CC2 [Example 292, N-(2-cyanoethyl)-5-(1H-indole-2-carbonyl)-N-methyl-1H,4H,5H,6H,7H-pyrazolo[4,3-c]pyridine-3-carboxamide] | 1 to 25 | < 5 | > 10
7 | CCN(C(=O)c1n[nH]c2c1CN(C(=O)c1cc3ccccc3[nH]1)CC2)C1(COC)CC1 [Example 296, N-ethyl-5-(1H-indole-2-carbonyl)-N-[1-(methoxymethyl)cyclopropyl]-1H,4H,5H,6H,7H-pyrazolo[4,3-c]pyridine-3-carboxamide] | < 1 | < 5 | > 10
8 | COCC1(N(C)C(=O)c2n[nH]c3c2CN(C(=O)c2cc4c(F)ccc(F)c4[nH]2)CC3)CC1 [Example 297, 5-(4,7-difluoro-1H-indole-2-carbonyl)-N-[1-(methoxymethyl)cyclopropyl]-N-methyl-1H,4H,5H,6H,7H-pyrazolo[4,3-c]pyridine-3-carboxamide] | < 1 | < 5 | > 10
9 | COCC1(N(C)C(=O)c2n[nH]c3c2CN(C(=O)c2cc4c(C(F)F)cc(F)cc4[nH]2)CC3)CC1 [Example 298, 5-[4-(difluoromethyl)-6-fluoro-1H-indole-2-carbonyl]-N-[1-(methoxymethyl)cyclopropyl]-N-methyl-1H,4H,5H,6H,7H-pyrazolo[4,3-c]pyridine-3-carboxamide] | < 1 | < 5 | > 10
10 | COCC1(N(C)C(=O)c2n[nH]c3c2CN(C(=O)c2cc4c(C(F)F)cccc4[nH]2)CC3)CC1 [Example 299, 5-[4-(difluoromethyl)-1H-indole-2-carbonyl]-N-[1-(methoxymethyl)cyclopropyl]-N-methyl-1H,4H,5H,6H,7H-pyrazolo[4,3-c]pyridine-3-carboxamide] | < 1 | < 5 | > 10
11 | COCC1(N(C)C(=O)c2n[nH]c3c2CN(C(=O)c2cc4cc(F)c(F)cc4[nH]2)CC3)CC1 [Example 300, 5-(5,6-difluoro-1H-indole-2-carbonyl)-N-[1-(methoxymethyl)cyclopropyl]-N-methyl-1H,4H,5H,6H,7H-pyrazolo[4,3-c]pyridine-3-carboxamide] | < 1 | < 5 | > 10
12 | COCC1(N(C)C(=O)c2n[nH]c3c2CN(C(=O)c2cc4c(C(F)(F)F)cccc4[nH]2)CC3)CC1 [Example 302, N-[1-(methoxymethyl)cyclopropyl]-N-methyl-5-[4-(trifluoromethyl)-1H-indole-2-carbonyl]-1H,4H,5H,6H,7H-pyrazolo[4,3-c]pyridine-3-carboxamide] | < 1 | < 5 | > 10
13 | COCC1(N(CC(F)F)C(=O)c2n[nH]c3c2CN(C(=O)c2cc4ccccc4[nH]2)CC3)CC1 [Example 303, N-(2,2-difluoroethyl)-5-(1H-indole-2-carbonyl)-N-[1-(methoxymethyl)cyclopropyl]-1H,4H,5H,6H,7H-pyrazolo[4,3-c]pyridine-3-carboxamide] | < 1 | < 5 | > 10
14 | COCC1(N(C(=O)c2n[nH]c3c2CN(C(=O)c2cc4ccccc4[nH]2)CC3)C(C)C)CC1 [Example 304, 5-(1H-indole-2-carbonyl)-N-[1-(methoxymethyl)cyclopropyl]-N-(propan-2-yl)-1H,4H,5H,6H,7H-pyrazolo[4,3-c]pyridine-3-carboxamide] | < 1 | < 5 | > 10
15 | COCC1(N(C)C(=O)c2n[nH]c3c2CN(C(=O)c2cc4c(F)cc(Cl)cc4[nH]2)CC3)CC1 [Example 305, 5-(6-chloro-4-fluoro-1H-indole-2-carbonyl)-N-[1-(methoxymethyl)cyclopropyl]-N-methyl-1H,4H,5H,6H,7H-pyrazolo[4,3-c]pyridine-3-carboxamide] | < 1 | < 5 | > 10
16 | COCC1(N(C)C(=O)c2n[nH]c3c2CN(C(=O)c2cc4c(Cl)ccc(F)c4[nH]2)CC3)CC1 [Example 306, 5-(4-chloro-7-fluoro-1H-indole-2-carbonyl)-N-[1-(methoxymethyl)cyclopropyl]-N-methyl-1H,4H,5H,6H,7H-pyrazolo[4,3-c]pyridine-3-carboxamide] | < 1 | < 5 | > 10
17 | COCC1(N(C)C(=O)c2n[nH]c3c2CN(C(=O)c2cc4c(F)c(F)cc(F)c4[nH]2)CC3)CC1 [Example 307, N-[1-(methoxymethyl)cyclopropyl]-N-methyl-5-(4,5,7-trifluoro-1H-indole-2-carbonyl)-1H,4H,5H,6H,7H-pyrazolo[4,3-c]pyridine-3-carboxamide] | < 1 | < 5 | > 10
18 | COCC1(N(C)C(=O)c2n[nH]c3c2CN(C(=O)c2cc4cccc(F)c4[nH]2)CC3)CC1 [Example 308, 5-(7-fluoro-1H-indole-2-carbonyl)-N-[1-(methoxymethyl)cyclopropyl]-N-methyl-1H,4H,5H,6H,7H-pyrazolo[4,3-c]pyridine-3-carboxamide] | < 1 | < 5 | > 10
19 | COCC1(N(C)C(=O)c2n[nH]c3c2CN(C(=O)c2cc4cc(F)cc(F)c4[nH]2)CC3)CC1 [Example 309, 5-(5,7-difluoro-1H-indole-2-carbonyl)-N-[1-(methoxymethyl)cyclopropyl]-N-methyl-1H,4H,5H,6H,7H-pyrazolo[4,3-c]pyridine-3-carboxamide] | < 1 | < 5 | > 10
20 | CN(C(=O)c1n[nH]c2c1CN(C(=O)c1cc3ccccc3[nH]1)CC2)C1(C(F)(F)F)CC1 [Example 310, 5-(1H-indole-2-carbonyl)-N-methyl-N-[1-(trifluoromethyl)cyclopropyl]-1H,4H,5H,6H,7H-pyrazolo[4,3-c]pyridine-3-carboxamide] | 1 to 25 | < 100 | > 10
21 | CN(C(=O)c1n[nH]c2c1CN(C(=O)c1cc3ccccc3[nH]1)CC2)C1(c2ccccn2)CC1 [Example 311, 5-(1H-indole-2-carbonyl)-N-methyl-N-[1-(pyridin-2-yl)cyclopropyl]-1H,4H,5H,6H,7H-pyrazolo[4,3-c]pyridine-3-carboxamide] | < 1 | < 5 | > 10
22 | C#CCN(C)C(=O)c1n[nH]c2c1CN(C(=O)c1cc3ccccc3[nH]1)CC2 [Example 312, 5-(1H-indole-2-carbonyl)-N-methyl-N-(prop-2-yn-1-yl)-1H,4H,5H,6H,7H-pyrazolo[4,3-c]pyridine-3-carboxamide] | < 1 | < 5 | > 10
23 | COCC1(N(CC(F)(F)F)C(=O)c2n[nH]c3c2CN(C(=O)c2cc4ccccc4[nH]2)CC3)CC1 [Example 313, 5-(1H-indole-2-carbonyl)-N-[1-(methoxymethyl)cyclopropyl]-N-(2,2,2-trifluoroethyl)-1H,4H,5H,6H,7H-pyrazolo[4,3-c]pyridine-3-carboxamide] | < 1 | < 5 | > 10
24 | C#CCOCC1(N(C)C(=O)c2n[nH]c3c2CN(C(=O)c2cc4ccccc4[nH]2)CC3)CC1 [Example 315, 5-(1H-indole-2-carbonyl)-N-methyl-N-{1-[(prop-2-yn-1-yloxy)methyl]cyclopropyl}-1H,4H,5H,6H,7H-pyrazolo[4,3-c]pyridine-3-carboxamide] | < 1 | < 5 | > 10
